We go through four molecules from patent EP4582418A1, “CRYSTALLINE FORM OF QUINOLINE DERIVATIVE INHIBITOR, PREPARATION METHOD THEREFOR AND USE THEREOF” (TransThera Sciences (Nanjing), Inc., priority 2022, dated 2024).

Data set [1] can be described thus: Solubility in FaSSIF (pH 6.5) and FeSSIF (pH 5.0) buffer solutions. Conditions: for 24-hour solubility in buffer solutions with different pH values pH6.5: FaSSIF (pH 6.5); for 24-hour solubility in buffer solutions with different pH values pH6.5 / 24-hour solubility in buffer solutions with different pH values pH5.0: 37 °C, shaken 24 h; for 24-hour solubility in buffer solutions with different pH values pH5.0: FeSSIF (pH 5.0); for solubility compared with the compound of formula (I): test solutions at pH 5.0 and pH 6.5. The data set is classed as physicochemical. On the procedure:
Test substances: the crystal forms I, II, III, and IV of the methanesulfonate of the compound of formula (I).
• 1) 0.42 g of NaOH, 3.44 g of anhydrous NaH2PO4, and 6.19 g of NaCl were dissolved in about 0.9 L of pure water; • 2) the pH was adjusted to 6.5 using 1 N NaOH or 1 N HCl, and the buffer solution was supplemented to the volume of 1 L with pure water at room temperature; • 3) 2.24 g of FaSSIF powder was added to about 0.5 L of the buffer solution, and the mixture was stirred until the powder was completely dissolved; the resulting solution was supplemented to the volume of 1 L with the buffer solution at room temperature, and after being left to stand for 2 h, it was ready for use.
• 1) 4.04 g of NaOH, 8.65 g of glacial acetic acid, and 11.87 g of NaCl were dissolved in about 0.9 L of pure water; • 2) the pH was adjusted to 5.0 using 1 N NaOH or 1 N HCl, and the buffer solution was supplemented to the volume of 1 L with pure water at room temperature; • 3) 11.2 g of FeSSIF powder was added to about 0.5 L of the buffer solution, and the mixture was stirred until the powder was completely dissolved; the resulting solution was supplemented to the volume of 1 L with the buffer solution at room temperature, and after being left to stand for 2 h, it was ready for use.
An appropriate amount of each test substance was placed into separate 10 mL PE tubes, and FaSSIF (pH 6.5) buffer solution and FeSSIF (pH 5.0) buffer solution, each 10 mL, were added into the tubes, respectively. The tubes were then placed in a constant temperature water bath shaker and shaken at 37 °C for 24 h. After 24 h, samples were collected and centrifuged. The supernatants were diluted, and the solubility of the supernatants was measured.

Data set [2] in a line: Stability test under influencing factors (high temperature, high humidity, illumination). The data set is classed as physicochemical. Conditions: for changes in the appearance and purity: left to stand under conditions of the influencing factors for 30 days. The procedure:
Test substances: the crystal forms I, II, III, and IV of the methanesulfonate of the compound of formula (I) of the present disclosure.
Methodology: Appropriate amounts of samples of the crystal forms I, II, III, and IV of the methanesulfonate of the compound of formula (I) were separately left to stand open under the conditions of a high temperature (60 °C), a high humidity (RH 92.5%), and illumination (4500±500 Lux); sampling was performed on days 5, 10, and 30 to investigate changes in the appearance, purity, and crystal form of the samples.

The nature of data set [3]: PK evaluation of crystal forms in rats. The data set is classed as in vivo. Conditions: SD rats, PO 60 mg/kg. The procedure:
The experimental crystal forms I and II of the methanesulfonate of the compound of formula (I) were each prepared into a suspension solution with 0.5% HPMC. The compound solutions were intragastrically administered to SD rats at a dose of 60 mg/kg. Blood samples were collected at time points of 15 min, 30 min, 1 h, 2 h, 4 h, 6 h, 8 h, 24 h, 48 h, 72 h, and 96 h after administration.
The animals were fixed, with tails warmed in a water bath 10 min before each sampling time point. About 100 µL of blood was collected via the tail vein, and the blood samples were collected in anticoagulation tubes containing EDTA-K2. The blood samples were then centrifuged at 8,000 rpm for 6 min at 4 °C to give plasma samples. The plasma samples were prepared within 30 min after blood collection. The plasma samples were stored in a refrigerator at -80 °C before the test.
The sample to be tested was taken out from the -80 °C refrigerator, naturally thawed at room temperature, and vortexed for 5 min. 20 µL of plasma sample was precisely pipetted to a 1.5 mL centrifuge tube, and 200 µL of internal standard working solution (a solution of tolbutamide in methanol, 100 ng/mL) was added. The resulting mixture was thoroughly mixed, vortexed for 5 min, and centrifuged at 12,000 rpm for 5 min. 50 µL of supernatant was precisely pipetted to a 96-well plate pre-loaded with 150 µL of water per well, and the resulting mixture was vortexed for 5 min and then used for LC-MS/MS analysis.
The concentrations of the test samples were calculated by Analyst 1.6.3 from AB Sciex. Parameters such as mean, standard deviation, and coefficient of variation (excluding those output directly by Analyst 1.6.3) were calculated by Microsoft Excel. PK parameters were calculated by Pharsight Phoenix 6.1 software NCA (Tmax was in median).

Where [4] appears, read: Left to stand open at 60 °C for 5 days.
The mark [5] stands for this setting: Left to stand open at 60 °C for 10 days.
Where [6] appears, read: Left to stand open at 60 °C for 30 days.
The mark [7] stands for this setting: Left to stand open at RH 92.5% for 5 days.
[8] abbreviates: Left to stand open at RH 92.5% for 10 days.
Where [9] appears, read: Left to stand open at RH 92.5% for 30 days.
Where [10] appears, read: Left to stand open under illumination (4500±500 Lux) for 5 days.
[11] abbreviates: Left to stand open under illumination (4500±500 Lux) for 10 days.
Where [12] appears, read: Left to stand open under illumination (4500±500 Lux) for 30 days.

On to `COc1cc2nccc(Oc3ccc(NC(=O)c4nn(C(C)C)cc(-c5ccc(F)cc5)c4=O)nc3)c2cc1OC` [Compound of formula (I), N-(5-((6,7-dimethoxyquinolin-4-yl)oxy)pyridin-2-yl)-5-(4-fluorophenyl)-1-isopropyl-4-oxo-1,4-dihydropyridazine-3-carboxamide], for which, in data set [1], the “24-hour solubility in buffer solutions with different pH values pH6.5” value was 0.0002 mg/mL and the “24-hour solubility in buffer solutions with different pH values pH5.0” value turned out to be 0.004 mg/mL.

As for `COc1cc2nccc(Oc3ccc(NC(=O)c4nn(C(C)C)cc(-c5ccc(F)cc5)c4=O)nc3)c2cc1OC` [Crystal form II, N-(5-((6,7-dimethoxyquinolin-4-yl)oxy)pyridin-2-yl)-5-(4-fluorophenyl)-1-isopropyl-4-oxo-1,4-dihydropyridazine-3-carboxamide], in data set [1], the “24-hour solubility in buffer solutions with different pH values pH6.5” value is listed as 0.023 mg/mL. Besides, the “24-hour solubility in buffer solutions with different pH values pH5.0” value in data set [1] was determined as 0.31 mg/mL. For the same molecule, the “solubility compared with the compound of formula (I)” value in data set [1] is “significantly improved”. Moreover, the Appearance entry in data set [2] (0 days), in data set [2] (setting [4]), in data set [2] (setting [5]), in data set [2] (setting [6]), in data set [2] (setting [7]) and in data set [2] (setting [8]) was “White or off-white solid” in each case. Besides, the Appearance result in data set [2] (setting [9]), in data set [2] (setting [10]), in data set [2] (setting [11]) and in data set [2] (setting [12]) was “White or off-white solid” each time. In addition, the Purity came to 99.74% in data set [2] (0 days); 99.74% in data set [2] (setting [4]); 99.73% in data set [2] (setting [5]); 99.72% in data set [2] (setting [6]); 99.74% in data set [2] (setting [7]); 99.74% in data set [2] (setting [8]). Also, the Purity in data set [2] (setting [9]) came to 99.74%; in data set [2] (setting [10]), 99.75%; in data set [2] (setting [11]), 99.74%; in data set [2] (setting [12]), 99.75%. Also, the “changes in the appearance and purity” value in data set [2] was “no significant changes”. The same molecule registered an AUClast in data set [3] (0-96 h, n = 3) of 3054.395 µg·h/mL. For the same molecule, in data set [3] (n = 3), the Cmax (as a rule, the peak of the concentration-time curve) was 58.933 µg/mL. Also, the λ_z in data set [3] (n = 3, suspension in 0.5% HPMC) was 0.026 h⁻¹. The Tmax (usually the time at which the peak concentration occurs) in data set [3] (median, n = 3) was found to be 6.00 h. Further, in data set [3] (terminal half-life, n = 3), the tz1/2 is 27.0 h.

Take `COc1cc2nccc(Oc3ccc(NC(=O)c4nn(C(C)C)cc(-c5ccc(F)cc5)c4=O)nc3)c2cc1OC` [Crystal form III, N-(5-((6,7-dimethoxyquinolin-4-yl)oxy)pyridin-2-yl)-5-(4-fluorophenyl)-1-isopropyl-4-oxo-1,4-dihydropyridazine-3-carboxamide]: in data set [1], the “24-hour solubility in buffer solutions with different pH values pH6.5” value is listed as 0.023 mg/mL. Further, the “24-hour solubility in buffer solutions with different pH values pH5.0” value in data set [1] worked out at 0.025 mg/mL. For the same molecule, the “solubility compared with the compound of formula (I)” value in data set [1] is recorded as “significantly improved”. Further, the Appearance entry in data set [2] (0 days), in data set [2] (setting [4]), in data set [2] (setting [5]), in data set [2] (setting [6]), in data set [2] (setting [7]) and in data set [2] (setting [8]) was “White or off-white solid” each time. Also, the Appearance entry in data set [2] (setting [9]), in data set [2] (setting [10]), in data set [2] (setting [11]) and in data set [2] (setting [12]) was “White or off-white solid” throughout. The Purity in data set [2] (0 days) is 99.90%; in data set [2] (setting [4]), 99.90%; in data set [2] (setting [5]), 99.90%; in data set [2] (setting [6]), 99.89%; in data set [2] (setting [7]) it was 99.90%; in data set [2] (setting [8]), 99.90%. The Purity in data set [2] (setting [9]) turned out to be 99.90%; in data set [2] (setting [10]), 99.90%; in data set [2] (setting [11]) it was 99.91%; in data set [2] (setting [12]), 99.91%. For the same molecule, the “changes in the appearance and purity” value in data set [2] is listed as “no significant changes”.

Consider `COc1cc2nccc(Oc3ccc(NC(=O)c4nn(C(C)C)cc(-c5ccc(F)cc5)c4=O)nc3)c2cc1OC` [Crystal form IV, N-(5-((6,7-dimethoxyquinolin-4-yl)oxy)pyridin-2-yl)-5-(4-fluorophenyl)-1-isopropyl-4-oxo-1,4-dihydropyridazine-3-carboxamide], for which the “24-hour solubility in buffer solutions with different pH values pH6.5” value in data set [1] came out at 0.023 mg/mL. Also, the “24-hour solubility in buffer solutions with different pH values pH5.0” value in data set [1] was determined as 0.31 mg/mL. Moreover, the “solubility compared with the compound of formula (I)” value in data set [1] is on record as “significantly improved”. For the same molecule, the Appearance result in data set [2] (0 days), in data set [2] (setting [4]), in data set [2] (setting [5]), in data set [2] (setting [6]), in data set [2] (setting [7]) and in data set [2] (setting [8]) was “White or off-white solid” each time. Further, the Appearance entry in data set [2] (setting [9]), in data set [2] (setting [10]), in data set [2] (setting [11]) and in data set [2] (setting [12]) was “White or off-white solid” in each case. For the same molecule, the Purity is given as 99.91% in data set [2] (0 days); 99.91% in data set [2] (setting [4]); 99.91% in data set [2] (setting [5]); 99.87% in data set [2] (setting [6]); 99.92% in data set [2] (setting [7]); 99.92% in data set [2] (setting [8]). For the same molecule, the Purity is given as 99.92% in data set [2] (setting [9]), 99.91% in data set [2] (setting [10]), 99.91% in data set [2] (setting [11]) and 99.88% in data set [2] (setting [12]). Also, in data set [2], the “changes in the appearance and purity” value is recorded as “no significant changes”.
